Results reported in US20210379068A1, “METHODS AND MATERIALS FOR TREATING NEUROPSYCHIATRIC DISORDERS” (Mayo Foundation for Medical Education and Research, priority 2018, published 2021).
Entries after “also recorded” stand apart in the source; their conditions may differ.

What was measured:
Format in all cases: in vivo, mouse
[1] = test system: senescent cells in perigonadal adipose tissue; assay: Senescence markers in perigonadal adipose tissue, INK-ATTAC mice on HFD; conditions: AP20187 vs vehicle
Protocol: (§1) INK-ATTAC mice were injected intraperitoneally (i.p.) with AP20187 (10 mg/kg) or vehicle for 3 days every 2 weeks for a total of 8-10 weeks.
Total RNA was extracted from white adipose tissue and brain using Trizol (Life Technologies, Carlsbad, Calif.) and reverse transcribed to cDNA with a M-MLV Reverse Transcriptase kit (Life Technologies). Real-time PCR was performed in a 7500 Fast Real Time PCR System (Applied Biosystems, Foster City, Calif.) using TaqMan Fast Universal PCR Master Mix (Life Technologies) and predesigned primers and probes from Applied Biosystems (Assay ID: Mm00494449_m1 [CDKN2A]; Mm04205640_g1 [CDKN1A]; Mm00446191_m1 [IL6]). Target gene expression was expressed as 2-ΔΔCT by the comparative CT method and normalized to the expression of TATA-binding protein (TBP) (Assay ID: Mm01277042 ml [TBP]).
On the day of the sacrifice, a small piece of adipose tissue was fixed with 2% PFA and 0.5% glutaraldehyde (Sigma) for 15 minutes at room temperature before being incubated overnight in SA-β-Gal solution (150 mM NaCl (Sigma), 2 mM MgCl2 (Sigma), 40 mM Citric Acid (Sigma), 12 mM NaPO3 (Sigma), 400 μg/ml X-gal (Thermofisher), 2.1 mg/ml potassium hexacyanoferrat(II)trihydrate, and 1.65 mg/ml Potassium hexacyanoferrat(III)trihydrate (Sigma), pH 6.0) at 37° C. overnight. Fat chunks were washed with PBS three times and stored in PBS at 4° C. protected from light. Within 3 days, adipose tissue was stained with Hoechst solution (1:5000; Thermofisher), lightly squashed between two 1×3 inch glass slides, and imaged using a light microscope. 10-20 random visual fields were captured at 20× magnification at light exposure identical for all the samples. Images were quantified by manual counting of SA-β-Gal positive cells by a blinded assessor and the data were expressed as percent of total DAPI-positive cells.
Paraffin sections were deparaffinized with Histoclear and hydrated in an ethanol gradient followed by water and PBS. Antigen was retrieved by incubation in 0.01M citrate buffer (pH 6.0) at 95° C. for 10 minutes. Slides were placed in blocking buffer (1:60 normal goat serum [S-1000, Vector Laboratories] in 0.1% BSA/PBS) for 60 minutes at room temperature. […] Primary antibodies used (Table 2) were diluted in blocking buffer and applied overnight at 4° C. The next day, slides were washed 3 times with PBS and incubated for 30 minutes with secondary goat, anti-rabbit antibody (1:200; Vector Laboratories #BA-1000) for TAF staining or for 60 minutes with secondary Alexa antibody (Table 1). For TAF staining, Fluorescein-Avidin in PBS (1:500; #A-2011, Vector Lab) was applied to each sample for 20 minutes. Slides were washed 3 times in PBS, which was followed by FISH for TAF detection. Briefly, tissues were crosslinked with 4% paraformaldehyde for 20 minutes and dehydrated in graded ethanol. Sections were denatured for 10 minutes at 80° C. in hybridization buffer (70% formamide (Sigma), 25 mM MgCl2, 0.1 M Tris (pH 7.2), and 5% blocking reagent [Roche]) containing 2.5 μg ml^−1 Cy-3-labelled telomere-specific (CCCTAA) peptide nucleic acid probe (Panagene), followed by hybridization for 2 hour at room temperature in the dark. Slides were washed twice with 70% formamide in 2×SSC for 15 minutes, followed by washes in 2×SSC and PBS for 10 minutes. Sections were mounted in Vectashield, DAPI-containing mounting media and imaged.
A single, 3 μm-thick section per mouse was used for TAF staining, while for Dcx and Plin2 staining was performed on three 10 μm-thick sections 80 μm-apart. To quantify periventricular lipid accumulation 10-30 images in the periventricular region were taken using the DM5500 widefield fluorescence microscope from Leica with a 10× (for frequency of periventricular glia) or ×40 (for ALISE phenotype of ependymal cells) objective lens. Number of Plin2-positive cells (for frequency of ALISE-positive periventricular glia) or area of Plin2-positive vesicles (for ALISE phenotype of ependymal cells) was assessed using ImageJ software. […]

SASP factors = assay: Circulating cytokines in blood plasma, INK-ATTAC mice on HFD; conditions: HFD-fed INK-ATTAC mice; AP vs vehicle
Protocol: as §1
Serum levels of cytokines: Eotaxin, G-Csf, Tnf-α, Il-6, Ifn-γ, Il-1α, Il-1β, Il-17, Il-2, Kc/Cxcl1, Mcp-1, M-Csf, Mig, Mip-1α, and Mip-1β were determined using a Multiplexing LASER Bead Assay (Mouse Cytokine Array/Chemokine Array 31-Plex (MD31), Eve Technologies; Canada). Blood was withdrawn from mice by punctuation of the sub-mandibular vein at the day of dissection before an animal was sacrificed. 50 μL of serum were shipped to Eve Technologies on dry ice. Due to high variability of data an unbiased elimination of outliers was performed using ROUT's method (Graphpad 7 Prism). The same panel was used to detect SASP in MAF and 50 μl of media was shipped to Eve Technologies on dry ice.

wild-type C57Bl/6 mice = assay: Open field test, off-target effects of AP in wild-type C57Bl/6 mice on HFD; conditions: AP 10 mg/kg i.p. 3 days every 2 weeks for 8 weeks
Protocol: For off target effect measurements db/db and HDF mice (fed with HFD for 2 months prior treatment) were injected intraperitoneally (i.p.) with […] at 10 mg/kg or vehicle for 3 days every 2 weeks for 8 weeks.
(§2) Locomotor activity and anxiety-like behavior of mice were assessed in sound-insulated, rectangular activity chambers (Med Associates Inc., St Albans, Vt., USA: W×L×D=27 cm×27 cm×20 cm with continually running fans, infrared lasers, and sensors). Beam breaks were assessed in 2-minute bins over 30 minutes, converted automatically to current mouse location and distance travelled (cm), and recorded on a computer with Med-PC software Version 4.0. Before the test, mice were acclimatized to the room for 1-1.5 hours before being introduced into the chambers. Mice were habituated for 5 minutes in the Open Field chamber (without recording) then placed for another 5 minutes in the home cage. Afterwards, mice were introduced back to the chambers and all mouse movements were recorded for 30 minutes. Anxiety was quantified by the distance mice travelled in the central 25% of the chamber (zone 1) as a function of the total distance mice travelled and by frequencies of entries into zone 1.

INK-ATTAC;db/db mice = assay: Open field test, INK-ATTAC;db/db mice treated with AP20187; conditions: AP20187 vs vehicle, 2 months
Protocol: as §1, §2

In the case of `CC[C@H](C(=O)N1CCCC[C@H]1C(=O)O[C@H](CCc1ccc(OC)c(OC)c1)c1cccc(OCC(=O)NCC(CNC(=O)COc2cccc([C@@H](CCc3ccc(OC)c(OC)c3)OC(=O)[C@@H]3CCCCN3C(=O)[C@@H](CC)c3cc(OC)c(OC)c(OC)c3)c2)CN(C)C)c1)c1cc(OC)c(OC)c(OC)c1` [AP], the “% SA-β-Gal positive cells, perigonadal adipose tissue” value [1] was “significantly reduced”, the “p16Ink4a (RT-PCR), perigonadal adipose tissue” value [1] was “significantly reduced” and the “p21 (PCR), perigonadal adipose tissue” value [1] was “not significantly changed”. For the same molecule, the “telomere-associated DNA damage foci (TAF), perigonadal adipose tissue” value [1] was “significantly reduced”, the “γ-H2A.X DNA damage foci, perigonadal adipose tissue” value [1] was “not significantly changed” and the “% SA-β-Gal positive cells, perigonadal adipose tissue” value ([1]; listed as AP20187) was “complete rescue”. The “p21 (PCR), perigonadal adipose tissue” value ([1]; listed as AP20187) was “no change”, the “γ-H2A.X DNA damage foci, perigonadal adipose tissue” value ([1]; listed as AP20187) was “no change” and the “G-Csf in the bloodstream” value (SASP factors) was “down-regulated”. For the same molecule, the “Il-1β in the bloodstream” value (SASP factors) was “down-regulated”, the “Kc/Cxcl1 in the bloodstream” value (SASP factors) was “down-regulated” and the “Mcp-1 in the bloodstream” value (SASP factors) was “down-regulated”. The “Mig in the bloodstream” value (SASP factors) was “down-regulated”, the “Tnf-α in the bloodstream” value (SASP factors) was “down-regulated” and the “anxiety-like behavior in open field (distance in the center), off-target control” value (wild-type C57Bl/6 mice) was “no difference”. For the same molecule, the “anxiety-like behavior: distance travelled in the central area, open field” value (INK-ATTAC;db/db mice) was “significantly reduced anxiety-like behavior”, the “number of entries into the central area, open field” value (INK-ATTAC;db/db mice) was “not significantly increased” and the “total distance travelled (activity), 30 minute open field” value (INK-ATTAC;db/db mice) was “not affected; also recorded: did not alter”. For the same molecule, the “anxiety-like behavior: distance travelled in the central area, open field” value (INK-ATTAC;db/db mice; listed as AP20187) was “significant difference”.
